Structures are written as SMILES. Activity calls are given as the source filed them. Some results are limits rather than exact numbers.

For experiment [1], the target named is Sphingosine 1-phosphate receptor 1 (Homo sapiens, UniProt P21453). The experiment is described as follows: Fluorescence-based counterscreen assay for S1P4 agonists: Cell-based dose response high throughput screening assay to identify agonists of the Sphingosine 1-Phosphate Receptor 1 (S1P1). [Related pubchem assays (depositor defined):AID1509, AID1523, AID1801, AID463107, AID463118, AID463119, AID463122, AID463123, AID463129, AID463225, AID504400, AID504460]. It is filed as functional. Background: A counterscreen serves to expose hits that act by an unwanted route or on another target.

In experiment [2] the target is T1, Sphingosine 1-phosphate receptor 4 (Homo sapiens, UniProt O95977).
T1 sequence (O95977 whole entry): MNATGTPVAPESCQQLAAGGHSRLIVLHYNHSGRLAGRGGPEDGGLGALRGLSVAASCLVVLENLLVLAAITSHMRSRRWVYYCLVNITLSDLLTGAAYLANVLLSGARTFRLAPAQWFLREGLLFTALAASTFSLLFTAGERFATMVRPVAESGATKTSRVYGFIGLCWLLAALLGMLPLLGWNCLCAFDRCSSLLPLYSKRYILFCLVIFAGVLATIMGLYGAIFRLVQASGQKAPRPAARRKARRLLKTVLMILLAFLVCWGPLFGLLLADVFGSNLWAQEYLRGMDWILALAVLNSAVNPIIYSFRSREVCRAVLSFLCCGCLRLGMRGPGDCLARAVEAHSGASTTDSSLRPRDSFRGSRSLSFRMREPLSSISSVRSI
The experiment is described as follows: Fluorescence dose response cell-based high throughput screening assay for agonists of the Sphingosine 1-Phosphate Receptor 4 (S1P4). [Related pubchem assays: 1509 (Primary screen.), 1523 (Confirmation screen in triplicates.)]. It is filed as functional.

Experiment [3] in a line: viability of PTEN-deleted HCT116 cells – cell-based, HCT116 PTEN knockout, dose response (AID 1047).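 Also: HCT116 colon tumor cells with PTEN knocked out; cells exposed to compound for 60 hours before readout; potency for loss of cell viability measured by luminescence.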 Type of experiment: functional.
The nature of experiment [4]: viability of HCT116 lacking mutant beta-catenin – cell-based, human colon tumor, dose response (AID 1045).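 Also: HCT116 colon tumor cells with beta catenin knocked out; cells exposed to compound for 60 hours.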 It is filed as functional.
Experiment [5] in a line: HEK-293T viability loss after treatment – luminescence, T-cell screen hits, cytotoxicity control for TCR NF-kB inhibitor project, dose response (AID 489026).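 Also: cells exposed to compound about 14 hours before the viability readout.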 It is filed as functional, cell-based.
Experiment [6] addresses Protein Wnt-3a (Mus musculus, UniProt P27467). The experiment is described as follows: antagonism of Wnt3a pathway luciferase reporter – Wnt-LIGHT cells, luminescence, selectivity assay for Gli-SUFU antagonist project, dose response (AID 651570).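 Also: Wnt-LIGHT reporter cells stimulated with conditioned medium from Wnt3a-producing cells.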 Type of experiment: functional. Particulars: read-out: IC50_Mean. In general terms: In a reporter assay the amount or activity of a reporter protein is the signal.

Experiment [7] addresses T2, G-protein coupled receptor 35 (Homo sapiens, UniProt Q9HC97). The experiment is described as follows: SAR analysis of Agonists of the GPR35 Receptor using an Image-Based Assay - Set 4. [Related pubchem assays (depositor defined):AID2013, AID2026]. Type of experiment: functional.
In experiment [8] the target is T3, Cannabinoid receptor 1 (Homo sapiens, UniProt P21554). The experiment is described as follows: SAR analysis of agonists of the Cannabinoid Receptor 1 using an Image-Based Assay - Set 4. [Related pubchem assays (depositor defined):AID2013, AID2026]. It is filed as functional.
Experiment [9] has as its target T2, G-protein coupled receptor 35. Nature of the experiment: SAR analysis of Antagonists of the GPR35 Receptor using an Image-Based Assay - Set 6. [Related pubchem assays (depositor defined):AID2013, AID2026]. It is filed as functional.
Experiment [10] addresses T3, Cannabinoid receptor 1. Nature of the experiment: SAR analysis of antagonists of the Cannabinoid Receptor 1 using an Image-Based Assay - Set 4. [Related pubchem assays (depositor defined):AID2013, AID2026]. Type of experiment: functional.
The target in experiment [11] is G-protein coupled receptor 55 (Homo sapiens, UniProt Q9Y2T6). Nature of the experiment: SAR Analysis of Selective Antagonists of GPR55 using an Image-Based Assay - Set 4. [Related pubchem assays (depositor defined):AID2013, AID2026]. Type of experiment: functional.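 Also: antagonism of response to 5 µM lysophosphatidylinositol agonist.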
For experiment [12], the target named is T4, Cannabinoid receptor 2 (Homo sapiens, UniProt P34972). The experiment is described as follows: SAR analysis of antagonists of the Cannabinoid Receptor 2 using an Image-Based Assay - Set 3. [Related pubchem assays (depositor defined):AID2013, AID2026]. Type of experiment: functional.
In experiment [13] the target is T4, Cannabinoid receptor 2. Nature of the experiment: SAR analysis of agonists of the Cannabinoid Receptor 2 using an Image-Based Assay - Set 3. [Related pubchem assays (depositor defined):AID2013, AID2026]. It is filed as functional.

T4 sequence (P34972 whole entry): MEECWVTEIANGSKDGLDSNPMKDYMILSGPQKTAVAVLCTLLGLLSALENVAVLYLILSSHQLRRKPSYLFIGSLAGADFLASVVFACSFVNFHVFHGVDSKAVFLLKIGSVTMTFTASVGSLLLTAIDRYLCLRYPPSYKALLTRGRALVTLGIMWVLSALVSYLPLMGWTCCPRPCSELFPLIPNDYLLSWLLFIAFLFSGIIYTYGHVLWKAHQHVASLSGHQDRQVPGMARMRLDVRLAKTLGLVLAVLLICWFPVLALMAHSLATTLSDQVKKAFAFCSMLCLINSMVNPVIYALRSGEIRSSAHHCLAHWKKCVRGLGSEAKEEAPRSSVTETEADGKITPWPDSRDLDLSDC
T2 sequence (Q9HC97 whole entry): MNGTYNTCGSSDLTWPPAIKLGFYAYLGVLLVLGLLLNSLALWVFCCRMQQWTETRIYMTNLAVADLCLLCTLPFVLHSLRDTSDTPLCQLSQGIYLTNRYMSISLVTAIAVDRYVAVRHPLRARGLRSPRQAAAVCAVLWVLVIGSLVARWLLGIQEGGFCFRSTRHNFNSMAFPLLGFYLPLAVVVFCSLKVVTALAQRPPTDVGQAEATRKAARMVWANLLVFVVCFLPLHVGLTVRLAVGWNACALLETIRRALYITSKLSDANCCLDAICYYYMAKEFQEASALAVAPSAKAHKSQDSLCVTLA
T3 sequence (P21554 whole entry): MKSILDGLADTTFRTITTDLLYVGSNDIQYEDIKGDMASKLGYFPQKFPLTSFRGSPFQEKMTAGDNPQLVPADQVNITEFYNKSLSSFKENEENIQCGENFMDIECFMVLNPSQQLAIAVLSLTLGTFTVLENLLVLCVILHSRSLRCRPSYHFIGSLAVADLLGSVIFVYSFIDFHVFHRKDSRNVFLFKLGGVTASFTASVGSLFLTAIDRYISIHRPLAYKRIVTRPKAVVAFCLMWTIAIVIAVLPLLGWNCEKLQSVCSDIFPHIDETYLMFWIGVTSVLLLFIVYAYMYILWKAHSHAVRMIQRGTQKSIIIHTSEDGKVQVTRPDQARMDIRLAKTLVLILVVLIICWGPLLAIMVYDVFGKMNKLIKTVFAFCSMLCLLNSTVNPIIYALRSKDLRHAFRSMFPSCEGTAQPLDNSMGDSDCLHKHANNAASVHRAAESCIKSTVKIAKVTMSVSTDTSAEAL
Sequence of G-protein coupled receptor 55 (Q9Y2T6 whole entry): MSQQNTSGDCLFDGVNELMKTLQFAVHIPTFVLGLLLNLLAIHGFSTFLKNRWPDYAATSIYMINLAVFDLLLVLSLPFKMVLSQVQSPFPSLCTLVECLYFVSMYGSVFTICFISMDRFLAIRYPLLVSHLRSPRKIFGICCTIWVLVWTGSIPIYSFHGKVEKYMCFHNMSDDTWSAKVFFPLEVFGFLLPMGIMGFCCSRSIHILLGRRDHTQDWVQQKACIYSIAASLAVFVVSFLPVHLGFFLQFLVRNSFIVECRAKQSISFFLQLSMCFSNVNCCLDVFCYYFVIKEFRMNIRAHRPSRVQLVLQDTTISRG
Sequence of Sphingosine 1-phosphate receptor 1 (P21453 whole entry): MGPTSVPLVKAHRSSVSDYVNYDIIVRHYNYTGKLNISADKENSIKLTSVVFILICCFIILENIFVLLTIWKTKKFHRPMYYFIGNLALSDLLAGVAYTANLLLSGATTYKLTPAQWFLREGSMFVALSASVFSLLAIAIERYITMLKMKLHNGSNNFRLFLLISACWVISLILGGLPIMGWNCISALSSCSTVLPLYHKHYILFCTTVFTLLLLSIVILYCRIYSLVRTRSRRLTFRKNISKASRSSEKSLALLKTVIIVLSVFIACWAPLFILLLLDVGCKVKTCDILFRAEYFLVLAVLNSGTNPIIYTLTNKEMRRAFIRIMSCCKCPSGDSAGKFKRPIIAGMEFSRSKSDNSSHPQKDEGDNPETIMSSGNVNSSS
Sequence of Protein Wnt-3a (P27467 whole entry): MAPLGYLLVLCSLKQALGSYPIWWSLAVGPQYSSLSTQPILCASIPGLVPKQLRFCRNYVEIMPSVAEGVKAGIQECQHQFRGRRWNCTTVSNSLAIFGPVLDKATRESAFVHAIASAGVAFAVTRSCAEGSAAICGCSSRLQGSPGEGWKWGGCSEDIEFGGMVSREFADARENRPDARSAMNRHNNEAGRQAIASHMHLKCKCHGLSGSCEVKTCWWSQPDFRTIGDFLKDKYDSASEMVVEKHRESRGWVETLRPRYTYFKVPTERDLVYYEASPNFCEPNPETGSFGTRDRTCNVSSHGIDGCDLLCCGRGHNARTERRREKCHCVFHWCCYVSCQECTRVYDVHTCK

As for `COc1ccc(-c2c(C#N)c(N)nc3c2CCc2ccccc2-3)cc1OC`, the EC50 (commonly the concentration at which the effect is half-maximal) was > 49.8 µM (inactive) in experiment [1], 43.6 µM (not active) in [2], 5.19 µM (active) in [3] and 5.59 µM (active) in experiment [4]. Besides, the IC50 in experiment [5] was 38.1 µM (inactive); in [6], 17.9 µM (active).
`CCOc1ccc(CC(=O)N2CCC(n3nc(-c4ccccc4)oc3=O)CC2)cc1`: the EC50 in experiment [7], in experiment [8] and in [13] was > 32 µM (inactive) each time. Moreover, the IC50 is > 32 µM (inactive) in experiment [9], 7.68 µM (active) in experiment [10], > 32 µM (inactive) in [11] and > 32 µM (inactive) in experiment [12].

The values above are taken from ChEMBL document CHEMBL1201862, “PubChem BioAssay data set” (2004).
